Key:
[1] = tested on: type I/III EGS strain cysts; experiment: Vacuole size of spontaneously formed EGS cysts; type: cell-based, Toxoplasma gondii; settings: EGS spontaneous cysts, 3x EC50, 4 days
Method: (§1) Type II Me49 or Pru was differentiated using compound 1 as previously described ([50]). Confluent HFF monolayers on glass coverslips (preincubated for 2 hours with 3 µM compound 1, as described previously) were infected with 5 × 10^3 tachyzoites of the ME49 or Pru (type 2) or EGS (type I/III) strain (no compound 1 for EGS). The cells were allowed to grow and differentiate in a 37°C incubator with ambient CO2 for 3 days (EGS was allowed to spontaneously differentiate for 4 days). […] After 7 days (Me49) or 8 days (EGS) of incubation, the cells were fixed with 3% paraformaldehyde for 10 minutes, permeabilized with 0.25% Triton X-100 for 10 minutes, and then blocked in 3% bovine serum albumin for 1 hour. The coverslips were then incubated in DBA rhodamine (for Me49)([51]) or DBA lectin (a kind gift from Diego Huet for EGS) and anti-SAG1 rat antibody (a kind gift from Vern Carruthers) for 2 hours. Then, the secondary anti-rat 488 was used to visualize the SAG1 antibody. The cells were then mounted onto microscope slides with fluoromount and DAPI (4′,6-diamidino-2-phenylindole). The slides were placed in the fridge for a minimum of 24 hours before imaging on a Delta Vision microscope. The vacuole sizes were calculated using ImageJ software.

[2] = tested on: ex vivo bradyzoites of the Pru strain from chronically infected mice; experiment: Ex vivo bradyzoite viability assay, Pru; type: cell-based, Toxoplasma gondii; settings: 3x EC50
Method: (§2) Brains of chronically infected mice were collected, homogenized with seven strokes in a glass homogenizer, and then enumerated on a Delta Vision microscope [protocol adapted from reference ([45])]. Twenty-five cysts per plate were then placed in a tube for acid/pepsin (170 mM sodium chloride, 60 mM hydrochloric acid, and 0.1 mg/mL pepsin) treatment for 10 minutes in a 37°C water bath. The cysts were then neutralized with 94 mM Na2CO3. The liberated bradyzoites were then equally distributed into a 12-well plate. For the growth assay, the cells were grown in the presence of compounds or DMSO for 12 and 14 days undisturbed. For the viability assays, the cells were treated with compounds or DMSO for 4 hours before being washed with 1× PBS and then grown for 12 and 14 days in media without compounds. After 12 and 14 days, the cells were fixed with 100% ethanol and stained with 2.5× crystal violet. The control DMSO plaque image is duplicated from Fig. 2B to be used as the representative image of plaques in Fig. 2A. Plaques were quantified on a light microscope using the 4× objective and the size of the plaques was measured using Fiji (ImageJ) software.

[3] = tested on: RH-RFP tachyzoites in Swiss Webster mice; experiment: Mice infected with a lethal dose of T. gondii (acute infection); type: in vivo, Toxoplasma gondii; settings: 100 RH-RFP tachyzoites i.p., daily i.p. treatment for 10 days starting 6 hours after infection
Method: Experiments were carried out as described previously ([16]) using 100 T. gondii tachyzoites of the RH td-Tomato strain (RH-RFP) to infect female Swiss Webster mice. Drugs were dissolved in 10% Kolliphor HS-15 and were inoculated i.p. starting 6 hours after infection and administered for 10 days. The survival of mice was monitored along with their weight. Mice were sacrificed if they lost over 20% of their body weight. Surviving mice were challenged on day 30 post-infection with 10,000 RH-RFP tachyzoites. Blood was collected at 30 dpi (before challenge) and at the time of euthanasia (3 weeks post challenge) to analyze the presence of T. gondii antibodies. To test for antibodies, we ran a western blot with RH-RFP lysate protein and probed the membrane with the serum collected from the mice. Protein extraction and western blot conditions were as done previously ([20]). After blocking with 5% milk in PBS-T (0.1% Tween 20 in phosphate buffered saline [PBS]), we washed the membrane three times for 5 minutes with PBS-T and attached it to the BioRad multiscreen tool. The RH-RFP lysate was ran throughout the whole gel to allow for testing of different serum (antibodies) on the same membrane. […]

[4] = tested on: in vitro differentiated Me49 bradyzoites; experiment: In vitro bradyzoite viability assay (plaques); type: cell-based, Toxoplasma gondii; settings: Me49 bradyzoites treated 4 days at 3x and 5x EC50, then plaques 14 or 16 days, vs DMSO
Method: The protocol for in vitro viability assay was adapted from Zwicker et al. ([52]). Confluent HFF monolayers (preincubated for 2 hours with 3 µM compound 1) were infected with 5 × 10^3 tachyzoites of the ME49 (type 2) strain. After 24 hours, the compound 1 was removed to avoid toxicity to the host cells. The cells were allowed to grow and differentiate in a 37°C incubator with ambient CO2 for 3 days. […] After 7 days of differentiation, the cysts were collected by scraping the monolayers, syringe lysing the parasites, and treatment with acid/pepsin (170 mM sodium chloride, 60 mM hydrochloric acid, and 0.1 mg/mL pepsin) for 30 minutes in a 37°C water bath. The cysts were then neutralized with 94 mM sodium carbonate (Na2CO3) and enumerated. Ten thousand bradyzoites were plated per well in a six-well plate and allowed to grow undisturbed in a 37°C incubator with 5% CO2 for 14 or 16 days. At this time, cultures were fixed with 100% ethanol and stained with 2.5× crystal violet. The control DMSO plaque image is duplicated from Fig. 1E to be used as the representative image of plaques in Fig. 1D. Plaques were quantified using a light microscope using the 4× objective.

[5] = tested on: ex vivo bradyzoites of Me49-RFP from brains of chronically infected mice; experiment: Ex vivo bradyzoite viability assay, Me49-RFP; type: cell-based, Toxoplasma gondii; settings: inhibitors 4 hours then drug-free 14 days, 3x EC50
Method: as §2

[6] = tested on: ex vivo bradyzoites of the Pru strain from chronically infected mice; experiment: Ex vivo bradyzoite growth assay, Pru; type: cell-based, Toxoplasma gondii; settings: 3x EC50
Method: as §2

[7] = tested on: in vitro differentiated Me49 bradyzoites (cysts); experiment: Vacuole size of in vitro differentiated Me49 cysts (DBA/SAG1 IFA); type: cell-based, Toxoplasma gondii; settings: 4 days, ambient CO2
Method: as §1

T. gondii = tested on: T. gondii; parameters: method as in PMID 17069459; settings: cited from earlier work
[8] = tested on: Me49-RFP brain tissue cysts in Swiss Webster mice; experiment: Treatment of Swiss Webster mice chronically infected with Me49-RFP; type: in vivo, Toxoplasma gondii; settings: Swiss Webster mice, 5,000 Me49-RFP i.p., BPH-1218 at 1 mg/kg daily for 16 days
[9] = tested on: RH-RFP tachyzoites in Swiss Webster mice; settings: RH parasites; cited from earlier work
[10] = tested on: Pru-GFP brain tissue cysts in Balb/c mice; experiment: Treatment of Balb/c mice chronically infected with Pru-GFP; settings: Balb/c mice, 1,500 Pru-GFP i.p., 1 mg/kg/day i.p. for 16 days from 28 dpi
Method: BALB/c male mice (Jackson Laboratory) were injected i.p. with a 200 µL suspension of 1,500 tachyzoites of the Pru-GFP strain T. gondii (type II genotype) (a gift from Laura Knoll). […] At 4 weeks post-infection, the brains of two mice were collected to check for the presence of cysts and to confirm that the mice were in the chronic stage. At this time, the remaining mice were injected i.p. daily for 16 consecutive days with 200 µL solvent (10% Kolliphor HS-15) or compounds dissolved in 10% HS-15. […] Mice were euthanized humanely 2 weeks after the final injection. The mouse brains were collected in 1 mL sterile PBS, minced with scissors, and homogenized using a glass homogenizer. Four 20 µL samples (80 µL total or 8% of sample) of each brain homogenate were placed on a glass microscope slide. Cysts were enumerated using a Delta Vision fluorescence microscope.

[11] = tested on: in vitro derived Pru cysts; experiment: Vacuole size of in vitro derived Pru cysts; type: cell-based, Toxoplasma gondii
Method: as §1

[12] = tested on: hyperactivity of Balb/c mice chronically infected with Pru-GFP; experiment: CageDot continuous monitoring of mouse activity during chronic infection; settings: 1 mg/kg/day i.p. 16 days, 15 dpt and 2 wpt
Method: At this time, the remaining mice were injected i.p. daily for 16 consecutive days with 200 µL solvent (10% Kolliphor HS-15) or compounds dissolved in 10% HS-15. […] Mice were euthanized humanely 2 weeks after the final injection.
Mice were monitored during the infection using the CageDot ([30], [31]), which detects vibrations. […] Data are collected at a 100 Hz sampling rate (each second, 100 data points were collected).

CCCCCCCCCCCn1cc[n+](CC(O)(P(=O)([O-])O)P(=O)(O)O)c1 (stereo not drawn) [BPH-1236]
size of the vacuoles (cysts) [1]: reduced the size of the vacuoles | number of plaques, ex vivo viability [2]: significant reduction in the number of plaques | protection against lethal acute infection (survival) [3]: protected mice against the acute infection | number of plaques (bradyzoite viability) [4]: plaque number was significantly reduced | number of plaques, ex vivo viability [5]: reduced the viability of ex vivo bradyzoites | number of plaques, ex vivo growth [6]: significant reduction in the number of plaques | vacuole size ([7]; 5x EC50 against tachyzoites): diminished vacuole size

CN1CCC(c2cc(-c3ccncc3)c(-c3ccc(F)cc3)[nH]2)CC1 [Compound 1, 4-[2-(4-fluorophenyl)-5-(1-methylpiperidine-4-yl)-1H-pyrrol-3-yl]pyridine]
induction of bradyzoite-specific antigen 1 (T. gondii): potent inducer of bradyzoite-specific antigen 1 | replication of T. gondii (T. gondii): dramatically slow the replication

CCCCCCCCCCn1cc[n+](CC(P(=O)([O-])O)P(=O)(O)O)c1 (stereo not drawn) [BPH-1218]
size of the vacuoles (cysts) [1]: reduced the size of the vacuoles | reduction of cyst burden [8]: 73.6% | protection against lethal acute infection [9]: protected mice against a lethal acute infection | reduction of cyst burden [10]: 74.0% | number of plaques, ex vivo viability [2]: significant reduction in the number of plaques | vacuole size [11]: decreased the vacuole size | number of plaques (bradyzoite viability) [4]: plaque number was significantly reduced | activity of infected mice (nightly average energy, CageDot) [12]: decreased the activity of the infected mice to similar levels of the control uninfected mice | number of plaques, ex vivo viability [5]: reduced the viability of ex vivo bradyzoites | number of plaques, ex vivo growth [6]: significant reduction in the number of plaques | vacuole size ([7]; 3x EC50 against tachyzoites): showed the same effect on vacuole size | vacuole size ([7]; 5x EC50 against tachyzoites): diminished vacuole size

CCCCCCCCCn1cc[n+](CC(O)(P(=O)([O-])O)P(=O)(O)O)c1 (stereo not drawn) [BPH-1238]
size of the vacuoles (cysts) [1]: reduced the size of the vacuoles | number of plaques, ex vivo viability [2]: significant reduction in the number of plaques | number of plaques (bradyzoite viability) [4]: plaque number was significantly reduced | number of plaques, ex vivo viability [5]: reduced the viability of ex vivo bradyzoites | number of plaques, ex vivo growth [6]: significant reduction in the number of plaques | vacuole size ([7]; 5x EC50 against tachyzoites): diminished vacuole size
